Measurements: patent US10385103B2, “Cell-permeable (ICP)-SOCS3 recombinant protein and uses thereof” (CELLIVERY THERAPEUTICS, INC., priority 2014, dated 2019)

Test system: RAW 264.7 cells
Test: Quantitative cell-permeability of FITC-labeled aMTD- or rPeptide-fused CRA recombinant proteins (flow cytometry)
Assay type: cell-based
Details: for Relative Ratio to aMTD AVE: cell-permeability of rPeptide-fused CRA recombinant protein relative to average of 240 aMTDs
Method in brief: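 Uptake of fluorescently labeled, peptide-fused cargo proteins was quantified by flow cytometry (Guava, Millipore) and analyzed in FlowJo software. RAW 264.7 cells received 10 μM FITC-labeled protein for 1 hour at 37° C., were rinsed three times with cold PBS, and were trypsinized with 0.25% tripsin/EDTA for 20 minutes at 37° C. to remove bound protein before measurement. Permeability was expressed relative to reference proteins.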

[1] = cell-permeability relative to negative control rP38 (A type), aMTD-fused CRA recombinant protein, 10 μM FITC-labeled, 1 hour, 37° C., RAW 264.7 cells
[2] = cell-permeability relative to reference CPP MTD85 (C type), aMTD-fused CRA recombinant protein, 10 μM FITC-labeled, 1 hour, 37° C., RAW 264.7 cells
[3] = cell-permeability relative to reference CPP MTM12 (B type), aMTD-fused CRA recombinant protein, 10 μM FITC-labeled, 1 hour, 37° C., RAW 264.7 cells
[4] = cell-permeability of aMTD-fused CRA recombinant protein relative to negative control (A: rP38)
[5] = cell-permeability of aMTD-fused CRA recombinant protein relative to reference CPP (B: MTM12)
[6] = cell-permeability of aMTD-fused CRA recombinant protein relative to reference CPP (C: MTD85)
[7] = 10 μM FITC-labeled, 1 hour, 37° C., RAW 264.7 cells

Row | Substance | Relative Ratio (Fold) A [4] | Relative Ratio (Fold) B [5] | Relative Ratio (Fold) C [6] | also measured
1 | 645 (ALAVVALPAIVP; Amino acid Sequence of aMTD645) [compound 645] |  |  |  | Relative Ratio (Fold) A [1]: 4.3 Fold; Relative Ratio (Fold) C [2]: 1.5 Fold; Relative Ratio (Fold) B [3]: 2.9 Fold
2 | 661 (AAILAPIVAALP; Amino acid Sequence of aMTD661) [compound 661] | 21.4 Fold | 14.3 Fold | 7.2 Fold | 
3 | 664 (ILIAIAIPAAAP; Amino acid Sequence of aMTD664) [compound 664] |  |  |  | Relative Ratio (Fold) A [1]: 5.7 Fold; Relative Ratio (Fold) C [2]: 1.9 Fold; Relative Ratio (Fold) B [3]: 3.8 Fold
4 | 665 (LAIVLAAPVAVP; Amino acid Sequence of aMTD665) [compound 665] | 14.7 Fold | 9.9 Fold | 5.0 Fold | 
5 | 666 (AAIAIIAPAIVP; Amino acid Sequence of aMTD666) [compound 666] | 14.7 Fold | 9.9 Fold | 5.0 Fold | 
6 | 667 (LAVAIVAPALVP; Amino acid Sequence of aMTD667) [compound 667] |  |  |  | Relative Ratio (Fold) A [1]: 6.9 Fold; Relative Ratio (Fold) C [2]: 2.3 Fold; Relative Ratio (Fold) B [3]: 4.6 Fold
7 | 683 (LAIVLAAPAVLP; Amino acid Sequence of aMTD683) [compound 683] |  |  |  | Relative Ratio (Fold) A [1]: 5.5 Fold; Relative Ratio (Fold) C [2]: 1.9 Fold; Relative Ratio (Fold) B [3]: 3.2 Fold
8 | 684 (AAIVLALPAVLP; Amino acid Sequence of aMTD684) [compound 684] |  |  |  | Relative Ratio (Fold) A [1]: 3.5 Fold; Relative Ratio (Fold) C [2]: 1.2 Fold; Relative Ratio (Fold) B [3]: 2.1 Fold
9 | 685 (ALLVAVLPAALP; Amino acid Sequence of aMTD685) [compound 685] | 10.2 Fold | 5.9 Fold | 3.4 Fold | 
10 | 686 (AALVAVLPVALP; Amino acid Sequence of aMTD686) [compound 686] | 19.5 Fold | 13.1 Fold | 6.6 Fold | 
11 | 687 (AILAVALPLLAP; Amino acid Sequence of aMTD687) [compound 687] | 12.0 Fold | 7.0 Fold | 4.1 Fold | 
12 | 692 (PAPLPPVVILAV; Amino acid Sequence of rPeptide ID 692) [compound 692] |  |  |  | Relative Ratio to aMTD AVE [7]: 0.74
13 | 693 (AAPVLPVAVPIV; Amino acid Sequence of rPeptide ID 693) [compound 693] |  |  |  | Relative Ratio to aMTD AVE [7]: 0.13
14 | 700 (GTSNTCQSNQNS; Amino acid Sequence of rPeptide ID 700) [compound 700] |  |  |  | Relative Ratio to aMTD AVE [7]: 0.05; Relative Ratio (Fold) A (relative cell-permeability of rPeptide vs reference A (not defined)): 1.0 Fold; Relative Ratio (Fold) B (relative cell-permeability of rPeptide vs reference CPP B: MTM12): 0.6 Fold; Relative Ratio (Fold) C (relative cell-permeability of rPeptide vs reference CPP C: MTD85): 0.3 Fold
15 | 703 (IVAVALVPALAP; Amino acid Sequence of aMTD703) [compound 703] | 29.2 Fold | 19.5 Fold | 9.9 Fold | 
16 | 705 (IVAVALLPALAP; Amino acid Sequence of aMTD705) [compound 705] | 29.6 Fold | 19.1 Fold | 9.7 Fold | 
17 | 706 (IVAVALLPAVAP; Amino acid Sequence of aMTD706) [compound 706] | 12.0 Fold | 7.0 Fold | 4.1 Fold | 
18 | 707 (IVALAVLPAVAP; Amino acid Sequence of aMTD707) [compound 707] |  |  |  | Relative Ratio (Fold) A [1]: 7.3 Fold; Relative Ratio (Fold) C [2]: 2.5 Fold; Relative Ratio (Fold) B [3]: 4.9 Fold
19 | 724 (VAVLAVLPALAP; Amino acid Sequence of aMTD724) [compound 724] | 47.5 Fold | 31.8 Fold | 16.1 Fold | 
20 | 725 (IAVLAVAPAVLP; Amino acid Sequence of aMTD725) [compound 725] | 11.2 Fold | 7.5 Fold | 3.8 Fold | 
21 | 726 (LAVAIIAPAVAP; Amino acid Sequence of aMTD726) [compound 726] | 16.5 Fold | 11.0 Fold | 5.6 Fold | 
22 | 727 (VALAIALPAVLP; Amino acid Sequence of aMTD727) [compound 727] | 54.7 Fold | 36.7 Fold | 18.5 Fold | 

Row | Substance | Relative Ratio (Fold) A [4] | Relative Ratio (Fold) B [5] | Relative Ratio (Fold) C [6] | also measured
23 | 743 (AIAIALVPVALP; Amino acid Sequence of aMTD743) [compound 743] | 7.4 Fold | 4.9 Fold | 2.5 Fold | 
24 | 744 (AAVVIVAPVALP; Amino acid Sequence of aMTD744) [compound 744] | 11.0 Fold | 7.3 Fold | 3.7 Fold | 
25 | 746 (VAIIVVAPALAP; Amino acid Sequence of aMTD746) [compound 746] | 7.6 Fold | 4.4 Fold | 2.6 Fold | 
26 | 763 (VAVLIAVPALAP; Amino acid Sequence of aMTD763) [compound 763] | 12.3 Fold | 7.2 Fold | 4.2 Fold | 
27 | 764 (AVALAVLPAVVP; Amino acid Sequence of aMTD764) [compound 764] |  |  |  | Relative Ratio (Fold) A [1]: 5.0 Fold; Relative Ratio (Fold) C [2]: 1.7 Fold; Relative Ratio (Fold) B [3]: 3.4 Fold
28 | 765 (AVALAVVPAVLP; Amino acid Sequence of aMTD765) [compound 765] |  |  |  | Relative Ratio (Fold) A [1]: 3.8 Fold; Relative Ratio (Fold) C [2]: 1.3 Fold; Relative Ratio (Fold) B [3]: 2.2 Fold
29 | 766 (IVVIAVAPAVAP; Amino acid Sequence of aMTD766) [compound 766] | 12.9 Fold | 8.6 Fold | 4.4 Fold | 
30 | 767 (IVVAAVVPALAP; Amino acid Sequence of aMTD767) [compound 767] | 8.5 Fold | 5.0 Fold | 2.9 Fold | 
31 | 783 (IVALVPAVAIAP; Amino acid Sequence of aMTD783) [compound 783] |  |  |  | Relative Ratio (Fold) A [1]: 5.7 Fold; Relative Ratio (Fold) C [2]: 1.9 Fold; Relative Ratio (Fold) B [3]: 3.8 Fold
32 | 784 (VAALPAVALVVP; Amino acid Sequence of aMTD784) [compound 784] |  |  |  | Relative Ratio (Fold) A [1]: 7.1 Fold; Relative Ratio (Fold) C [2]: 2.4 Fold; Relative Ratio (Fold) B [3]: 4.7 Fold
33 | 786 (LVAIAPLAVLAP; Amino acid Sequence of aMTD786) [compound 786] | 21.2 Fold | 14.2 Fold | 7.2 Fold | 
34 | 788 (AIAVAIAPVALP; Amino acid Sequence of aMTD788) [compound 788] | 9.8 Fold | 6.6 Fold | 3.3 Fold | 
35 | 803 (AIALAVPVLALP; Amino acid Sequence of aMTD803) [compound 803] | 74.7 Fold | 50.0 Fold | 25.3 Fold | 
36 | 805 (LVLIAAAPIALP; Amino acid Sequence of aMTD805) [compound 805] | 22.3 Fold | 14.9 Fold | 7.6 Fold | 
37 | 806 (LVALAVPAAVLP; Amino acid Sequence of aMTD806) [compound 806] | 36.7 Fold | 24.6 Fold | 12.4 Fold | 
38 | 807 (AVALAVPALVLP; Amino acid Sequence of aMTD807) [compound 807] |  |  |  | Relative Ratio (Fold) A [1]: 5.0 Fold; Relative Ratio (Fold) C [2]: 1.7 Fold; Relative Ratio (Fold) B [3]: 3.3 Fold
39 | 809 (LIVLAAPALAAP; Amino acid Sequence of aMTD809) [compound 809] |  |  |  | Relative Ratio (Fold) A [1]: 7.0 Fold; Relative Ratio (Fold) C [2]: 2.4 Fold; Relative Ratio (Fold) B [3]: 4.7 Fold
40 | 810 (VIVLAAPALAAP; Amino acid Sequence of aMTD810) [compound 810] | 120.0 Fold | 80.3 Fold | 40.6 Fold | 
41 | 811 (AVVLAVPALAVP; Amino acid Sequence of aMTD811) [compound 811] | 46.5 Fold | 31.1 Fold | 15.7 Fold | 
42 | 824 (LIIVAAAPAVAP; Amino acid Sequence of aMTD824) [compound 824] | 32.8 Fold | 21.9 Fold | 11.1 Fold | 
43 | 825 (IVAVIVAPAVAP; Amino acid Sequence of aMTD825) [compound 825] | 69.7 Fold | 46.6 Fold | 23.5 Fold | 
